The source of these data is patent US9540392B2, “Thienopyrimidines” (BAYER PHARMA AKTIENGESELLSCHAFT, priority 2012, dated 2017).

This test deals with T1, human full-length MKNK1 (Homo sapiens, UniProt Q9BUB5, T385D).
T1 construct: GST (N); purchased Carna Biosciences 02-145; host or cells: insect cells (baculovirus expression system)
T1 sequence (Q9BUB5 1-424 isoform Q9BUB5-2 T344D): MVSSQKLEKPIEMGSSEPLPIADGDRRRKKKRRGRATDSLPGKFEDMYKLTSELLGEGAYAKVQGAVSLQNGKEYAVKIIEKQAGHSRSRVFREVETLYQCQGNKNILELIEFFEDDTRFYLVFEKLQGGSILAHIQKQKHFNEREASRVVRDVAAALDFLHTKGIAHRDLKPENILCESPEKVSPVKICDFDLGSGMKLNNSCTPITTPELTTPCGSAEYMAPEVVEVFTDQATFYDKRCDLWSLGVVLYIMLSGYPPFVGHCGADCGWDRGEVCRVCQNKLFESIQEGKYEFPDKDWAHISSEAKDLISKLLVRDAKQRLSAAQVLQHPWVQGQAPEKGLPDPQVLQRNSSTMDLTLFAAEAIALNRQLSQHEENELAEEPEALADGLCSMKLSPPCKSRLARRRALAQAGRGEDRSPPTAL
Put plainly: MKNK1 kinase high ATP assay (TR-FRET). Type of test: biochemical. The conditions noted are these: 2 mM ATP, after preincubation with MKNK1; read-out: MKNK1 IC50 (MKNK1 high ATP). The method in brief:
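Compound was preincubated 15 min at 22° C. with MKNK1 in 50 mM HEPES pH 7.5, 5 mM MgCl2, 1.0 mM DTT, then the reaction ran 30 min at 22° C. with 2 mM ATP and 0.06 μM biotinylated peptide (final).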
(In general: TR-FRET usually uses a lanthanide donor and a delayed reading to cut background.)
What is called IC50 is the concentration that inhibits the measured activity by half. `COc1cc2[nH]ncc2cc1Nc1ncnc2sc3c(c12)CCC(C(=O)N1CCC1)C3` (racemic) [Example 177, (RS)-Azetidin-1-yl{4-[(6-methoxy-1H-indazol-5-yl)amino]-5,6,7,8-tetrahydro[1]benzothieno[2,3-d]pyrimidin-7-yl}methanone]: the IC50 worked out at 0.4 nM.
For `CCN(C)C(=O)C1CCc2c(sc3ncnc(Nc4cc5cn[nH]c5cc4OC)c23)C1` (racemic) [Example 179, (RS)—N-Ethyl-4-[(6-methoxy-1H-indazol-5-yl)amino]-N-methyl-5,6,7,8-tetrahydro[1]benzothieno[2,3-d]pyrimidine-7-carboxamide], the half-inhibitory concentration (IC50) was determined as 0.7 nM.
In the case of `COc1cc2[nH]ncc2cc1Nc1ncnc2sc3c(c12)CCC(C(=O)N1CCC(C)(C)C1)C3` (racemic) [Example 180, (RS)-(3,3-Dimethylpyrrolidin-1-yl){4-[(6-methoxy-1H-indazol-5-yl)amino]-5,6,7,8-tetrahydro[1]benzothieno[2,3-d]pyrimidin-7-yl}methanone] it was 0.8 nM; in that of `COc1cc2[nH]ncc2cc1Nc1ncnc2sc3c(c12)CCC(C(=O)N(C)C1CC1)C3` (racemic) [Example 181, (RS)—N—Cyclopropyl-4-[(6-methoxy-1H-indazol-5-yl)amino]-N-methyl-5,6,7,8-tetrahydro[1]benzothieno[2,3-d]pyrimidine-7-carboxamide], 0.2 nM.
In the case of `COc1cc2[nH]ncc2cc1Nc1ncnc2sc3c(c12)CCC(C(=O)N(C)CC1CC1)C3` (racemic) [Example 182, (RS)—N-(Cyclopropylmethyl)-4-[(6-methoxy-1H-indazol-5-yl)amino]-N-methyl-5,6,7,8-tetrahydro[1]benzothieno[2,3-d]pyrimidine-7-carboxamide] it was 0.5 nM; in that of `COc1cc2[nH]ncc2cc1Nc1ncnc2sc3c(c12)CCC(C(=O)N1CCCC1)C3` (racemic) [Example 183, (RS)-{4-[(6-Methoxy-1H-indazol-5-yl)amino]-5,6,7,8-tetrahydro[1]benzothieno[2,3-d]pyrimidin-7-yl}(pyrrolidin-1-yl)methanone], 3.2 nM; in that of `O=C(C1CCc2c(sc3ncnc(Nc4ccc5[nH]ncc5c4)c23)C1)N1CC=CC1` (racemic) [Example 184, (RS)-2,5-dihydro-1H-pyrrol-1-yl[4-(1H-indazol-5-ylamino)-5,6,7,8-tetrahydro[1]benzothieno[2,3-d]pyrimidin-7-yl]methanone], 12.4 nM.
In the case of `O=C(C1CCc2c(sc3ncnc(Nc4ccc5[nH]ncc5c4)c23)C1)N1CCCC1CO` (racemic) [Example 186, (RS)-[2-(hydroxymethyl)pyrrolidin-1-yl][4-(1H-indazol-5-ylamino)-5,6,7,8-tetrahydro[1]benzothieno[2,3-d]pyrimidin-7-yl]methanone] it was 40.6 nM; in that of `O=C(C1CCc2c(sc3ncnc(Nc4ccc5[nH]ncc5c4)c23)C1)N1CCS(=O)(=O)CC1` (racemic) [Example 188, (RS)-(1,1-dioxidothiomorpholin-4-yl)[4-(1H-indazol-5-ylamino)-5,6,7,8-tetrahydro[1]benzothieno[2,3-d]pyrimidin-7-yl]methanone], 22.6 nM.
Consider `CCN(CCC#N)C(=O)C1CCc2c(sc3ncnc(Nc4ccc5[nH]ncc5c4)c23)C1` (racemic) [Example 190, (RS)-N-(2-cyanoethyl)-N-ethyl-4-(1H-indazol-5-ylamino)-5,6,7,8-tetrahydro[1]benzothieno[2,3-d]pyrimidine-7-carboxamide], for which the concentration for half-maximal inhibition (IC50) is 6 nM.
In the case of `O=C(C1CCc2c(sc3ncnc(Nc4ccc5[nH]ncc5c4)c23)C1)N1CCN(CC2CC2)CC1` (racemic) [Example 191, (RS)-[4-(cyclopropylmethyl)piperazin-1-yl][4-(1H-indazol-5-ylamino)-5,6,7,8-tetrahydro[1]benzothieno[2,3-d]pyrimidin-7-yl]methanone] it was 7.3 nM; in that of `O=C(C1CCc2c(sc3ncnc(Nc4ccc5[nH]ncc5c4)c23)C1)N1CCN2CCCCC2C1` (racemic) [Example 192, (RS)-[4-(1H-indazol-5-ylamino)-5,6,7,8-tetrahydro[1]benzothieno[2,3-d]pyrimidin-7-yl](octahydro-2H-pyrido[1,2-a]pyrazin-2-yl)methanone], 15.1 nM.
In the case of `CN(CCCCO)C(=O)C1CCc2c(sc3ncnc(Nc4ccc5[nH]ncc5c4)c23)C1` (racemic) [Example 193, (RS)-N-(4-hydroxybutyl)-4-(1H-indazol-5-ylamino)-N-methyl-5,6,7,8-tetrahydro[1]benzothieno[2,3-d]pyrimidine-7-carboxamide] it was 16.8 nM.
On to `O=C(C1CCc2c(sc3ncnc(Nc4ccc5[nH]ncc5c4)c23)C1)N1CCC(O)(C(F)(F)F)CC1` (racemic) [Example 194, (RS)-[4-hydroxy-4-(trifluoromethyl)piperidin-1-yl][4-(1H-indazol-5-ylamino)-5,6,7,8-tetrahydro[1]benzothieno[2,3-d]pyrimidin-7-yl]methanone], for which the IC50 stood at 12 nM.
In the case of `N#CC1CCCN(C(=O)C2CCc3c(sc4ncnc(Nc5ccc6[nH]ncc6c5)c34)C2)C1` (racemic) [Example 196, (RS)-1-{[4-(1H-indazol-5-yalmino)-5,6,7,8-tetrahydro[1]benzothieno[2,3-d]pyrimidin-7-yl]carbonyl}piperidine-3-carbonitrile] it was 7.5 nM; in that of `CN1CCN(C(=O)C2CCc3c(sc4ncnc(Nc5ccc6[nH]ncc6c5)c34)C2)CC1CCO` (racemic) [Example 197, (RS)-[3-(2-hydroxyethyl)-4-methylpiperazin-1-yl][4-(1H-indazol-5-ylamino)-5,6,7,8-tetrahydro[1]benzothieno[2,3-d]pyrimidin-7-yl]methanone], 7.9 nM.
In the case of `CC(=O)N(C)C1CCN(C(=O)C2CCc3c(sc4ncnc(Nc5ccc6[nH]ncc6c5)c34)C2)C1` (racemic) [Example 198, (RS)-N-(1-{[4-(1H-indazol-5-ylamino)-5,6,7,8-tetrahydro[1]benzothieno[2,3-d]pyrimidin-7-yl]carbonyl}pyrrolidin-3-yl)-N-methylacetamide] it was 10 nM.
In the case of `O=C(C1CCc2c(sc3ncnc(Nc4ccc5[nH]ncc5c4)c23)C1)N1CC(N2CCCCC2)C1` (racemic) [Example 200, (RS)-[4-(1H-indazol-5-ylamino)-5,6,7,8-tetrahydro[1]benzothieno[2,3-d]pyrimidin-7-yl][3-(piperidin-1-yl)azetidin-1-yl]methanone] it was 8.6 nM.
With `O=C(CN1CCN(C(=O)C2CCc3c(sc4ncnc(Nc5ccc6[nH]ncc6c5)c34)C2)CC1)N1CCCC1` (racemic) [Example 201, (RS)-2-(4-{[4-(1H-indazol-5-ylamino)-5,6,7,8-tetrahydro[1]benzothieno[2,3-d]pyrimidin-7-yl]carbonyl}piperazin-1-yl)-1-(pyrrolidin-1-yl)ethanone], the concentration for half-maximal inhibition (IC50) was found to be 18.1 nM.
In the case of `CN(CCCO)C(=O)C1CCc2c(sc3ncnc(Nc4ccc5[nH]ncc5c4)c23)C1` (racemic) [Example 202, (RS)-N-(3-hydroxypropyl)-4-(1H-indazol-5-ylamino)-N-methyl-5,6,7,8-tetrahydro[1]benzothieno[2,3-d]pyrimidine-7-carboxamide] it was 15 nM.
In the case of `COCC1CCCN1C(=O)C1CCc2c(sc3ncnc(Nc4ccc5[nH]ncc5c4)c23)C1` (racemic) [Example 204, (RS)-[4-(1H-indazol-5-ylamino)-5,6,7,8-tetrahydro[1]benzothieno[2,3-d]pyrimidin-7-yl][2-(methoxymethyl)pyrrolidin-1-yl]methanone] it was 7.3 nM; in that of `CN(C)C1CCN(C(=O)C2CCc3c(sc4ncnc(Nc5ccc6[nH]ncc6c5)c34)C2)C1` (racemic) [Example 205, (RS)-[3-(dimethylamino)pyrrolidin-1-yl][4-(1H-indazol-5-ylamino)-5,6,7,8-tetrahydro[1]benzothieno[2,3-d]pyrimidin-7-yl]methanone], 7.3 nM; in that of `CC(C)Oc1cc2[nH]ncc2cc1Nc1ncnc2sc3c(c12)CCC(C(=O)N1CC2(COC2)C1)C3` (racemic) [Example 206, (RS)-2-Oxa-6-azaspiro[3.3]hept-6-yl(4-{[6-(propan-2-yloxy)-1H-indazol-5-yl]amino}-5,6,7,8-tetrahydro[1]benzothieno[2,3-d]pyrimidin-7-yl)methanone], 1 nM.
Turning to `COCCN(CCO)C(=O)C1CCc2c(sc3ncnc(Nc4cc5cn[nH]c5cc4OC)c23)C1` (racemic) [Example 207, (RS)—N-(2-Hydroxyethyl)-N-(2-methoxyethyl)-4-[(6-methoxy-1H-indazol-5-yl)amino]-5,6,7,8-tetrahydro[1]benzothieno[2,3-d]pyrimidine-7-carboxamide], the half-maximal inhibitory concentration (IC50) came out at 0.5 nM.
`CC(C)Oc1cc2[nH]ncc2cc1Nc1ncnc2sc3c(c12)CCC(C(=O)N1CC(C#N)C1)C3` (racemic) [Example 208, (RS)-1-[(4-{[6-(Propan-2-yloxy)-1H-indazol-5-yl]amino}-5,6,7,8-tetrahydro[1]benzothieno[2,3-d]pyrimidin-7-yl)carbonyl]azetidine-3-carbonitrile]: the half-inhibitory concentration (IC50) is 0.2 nM.
Take `CCOc1cc2[nH]ncc2cc1Nc1ncnc2sc3c(c12)CCC(C(=O)N1CCCCC1)C3` (racemic) [Example 209, (RS)-{4-[(6-Ethoxy-1H-indazol-5-yl)amino]-5,6,7,8-tetrahydro[1]benzothieno[2,3-d]pyrimidin-7-yl}(piperidin-1-yl)methanone]: the IC50 came out at 0.7 nM.
In the case of `CCOc1cc2[nH]ncc2cc1Nc1ncnc2sc3c(c12)CCC(C(=O)O)C3` (racemic) [Example 210, (RS)-4-[(6-Ethoxy-1H-indazol-5-yl)amino]-5,6,7,8-tetrahydro[1]benzothieno[2,3-d]pyrimidine-7-carboxylic acid] it was 73 nM.
